In publication PMC5665883, “Antithrombotic properties of JJ1, a potent and novel thrombin inhibitor” (Scientific Reports, 2017):
Marks after values point to notes of the source that are not given here.

Tests used:
human α-thrombin = molecular target: T1, human α-thrombin (Homo sapiens, UniProt P00734); assay: Chromogenic substrate assay, Ki (Dixon); format: biochemical
T1 construct: purchased Haematologic Technologies (Essex Junction, VT)
Protocol: (§2) Chromogenic substrate assays were performed using a Labsystems IEMS (Cergy Pontoise, France) microtiter plate reader. K i values were calculated according to the method of Dixon[65]. In each assay, the compound was tested at a minimum of seven concentrations, in duplicate, to obtain an inhibition curve. The following general procedures were adopted for each assay. In a 96-well microtiter plate, 25 μL of inhibitor solution or buffer was added to 50 μL of substrate. The enzyme solution (25 μL) was added just before the plate was placed in the microtiter plate reader for 1 h at 37 °C. The hydrolysis of the substrate yields p-nitroaniline, which was continuously monitored spectrophotometrically at 405 nm. The maximal initial reaction rates were calculated and expressed as millioptical density per minute.

Plasmin = molecular target: T2, Plasmin (Homo sapiens, UniProt P00747); assay: Chromogenic substrate assay, Ki (Dixon); format: biochemical
T2 construct: thrombin versus trypsin, factor Xa, elastase, plasmin, protein Ca, streptokinase, tPA, and urokinase
Protocol: as §2

tPA = tPA (Homo sapiens, UniProt P00750); assay: Chromogenic substrate assay, Ki (Dixon); format: biochemical
Protocol: as §2

thrombin = molecular target: T3, thrombin (Homo sapiens, UniProt P00734); assay: Enzyme-based assay of purchased virtual screening molecules, single dose; format: biochemical; settings: single concentration of 50 μM
T3 construct: purchased Haematologic Technologies (Essex Junction, VT)
Source text: Prior to the high-throughput virtual screening, we selected the best crystal structure for docking with DOCK 3.6[17] using the selected inhibitors and their physicochemically matched but topologically different decoys. […] Because the earlier enrichment of true positives is more important for high throughput SBVS, we used the value of LogAUC as a metric, selecting 2CF9-H[18] as the best structure. […] Besides, the enrichment at 1% (EF1) was 37.1. The values of LogAUC and EF1 were approximately two-fold higher than the averages (26.1 for LogAUC and 17.1 for EF1) (Figs 1 and S1). Some structures had higher AUC values than that of 2CF9-H, but the value of LogAUC was the highest for 2CF9-H (Fig. S1). The optimization necessitated the calculations of more than 2 million protein and ligand pairs. The high speed of DOCK 3.6 and the in-house Linux cluster system consisting of 128 cores efficiently managed the calculations in three days. Of the candidate molecules having the lowest scores in the high-throughput SBVS, we chose the molecules with desirable geometries and physicochemical properties by a simple manual and visual inspection. […] It is known that the scoring function of virtual screening itself is insufficient to capture such an abnormality. Table S1 and Fig. S2 list the top 40 molecules, which were selected through high-throughput SBVS; we purchased these molecules to measure enzymatic inhibitory activity.

human plasma = assay: In vitro PT clotting time; format: biochemical; settings: for PT / PT (INR): in vitro
Protocol: (§1) The aPTT and PT were determined using a Thrombotimer (Behnk Elektronik, Norderstedt, Germany) in accordance with the manufacturer’s instructions and as previously described. Briefly, citrated normal human plasma (90 μL) was mixed with 10 μL JJ1 and incubated for 1 min at 37 °C. Subsequently, the aPTT assay reagent (100 μL) was added, the plasma sample was incubated for an additional 1 min at 37 °C, 20 mM CaCl2 (100 μL) was added, and the clotting times were recorded. For the PT assays, citrated normal human plasma (90 μL) was mixed with 10 μL JJ1 stock solution and was incubated for 1 min at 37 °C. The PT assay reagent (200 μL), which had been pre-incubated for 10 min at 37 °C, was subsequently added and the clotting time was recorded. The PT results were expressed in seconds and as International Normalized Ratios (INR): INR = (PT sample/PT control)^ISI, where ISI = international sensitivity index. The aPTT results were also expressed in seconds. All experimental protocols (KNUH 2012-01-010) were approved by the Institutional Review Board of Kyungpook National University Hospitals (Daegu, Republic of Korea).

[1] = In vivo tail bleeding time; set-up: species or system C57BL/6 mice; settings: mice, i.v. injection, 1 h after administration
Protocol: Tail bleeding times were measured by using the method of Dejana et al.[63],[64]. Briefly, C57BL/6 mice were fasted overnight prior to the experiments. One hour after the i.v. administration of JJ1, the tails of the mice were transected at 2 mm from their tips. The bleeding time was defined as the time elapsed until the bleeding stopped. Bleeding times exceeding 15 min were recorded as lasting for 15 min.

[2] = Ex vivo aPTT clotting time; format: in vivo, C57BL/6 mice; settings: mice, i.v., 1 h after administration
Protocol: as §1
Male C57BL/6 mice were fasted overnight. Each compound was dissolved in 0.5% DMSO and administered by i.v. injection. One hour after administration, arterial blood samples (0.1 mL) were collected in 3.8% sodium citrate (1:10, v/v) for the ex vivo aPTT and PT determination. The clotting times were determined as described above.

clot-bound thrombin = molecular target: T4, clot-bound thrombin (Homo sapiens, UniProt P00734); assay: Clot-bound thrombin assay, FPA generation (ELISA); format: biochemical; settings: 60 min of incubation, FPA by ELISA; read-out: IC50, inhibition of FPA generation by clot-bound thrombin
T4 construct: Fibrin clots were formed by recalcification of citrated plasma and washed extensively; from tissue; host or cells: fibrin clots from recalcified citrated plasma
Protocol: Fibrin clots were formed by recalcification of citrated plasma and washed extensively to remove any FPA trapped within the clots. Plasma was then placed over the washed clots and FPA generation was determined. There was a time-dependent generation of FPA in plasma that was not caused by the release of FPA trapped within the washed clots, because the addition of buffer over the clots produced only a minimal amount of FPA (5.25 ± 0.35 nM at 60 min) (Fig. 8). The endogenous FPA level was 5.05 ± 0.31 nM in these studies.
The generation of FPA in plasma with or without JJ1 was quantified in accordance with the manufacturer’s instructions by using a commercially available ELISA kit (LSBio, Seattle, WA). Values were measured using an ELISA plate reader (Tecan, Austria GmbH, Austria).

HUVECs = assay: Production of thrombin on the surfaces of HUVECs; format: cell-based, human; settings: HUVECs with FVa, FXa, prothrombin
Protocol: Thrombin production by HUVECs was quantified as previously described[63],[68]. Briefly, HUVECs were pre-incubated in 300 μL of a solution containing JJ1 in 50 mM Tris-HCl buffer, 100 pM FVa, and 1 nM FXa for 10 min, followed by the addition of prothrombin to a final concentration of 1 μM. After 10 min, duplicate samples (10 μL each) were transferred into a 96-well plate containing 40 μL 0.5 M EDTA in TBS per well to terminate the prothrombin activation. Activated prothrombin was determined by the measurement of the rate of hydrolysis of S-2238 (a thrombin substrate) at 405 nm. Standard curves were prepared with known amounts of purified thrombin.

Chain of tPA (P00750 36-562): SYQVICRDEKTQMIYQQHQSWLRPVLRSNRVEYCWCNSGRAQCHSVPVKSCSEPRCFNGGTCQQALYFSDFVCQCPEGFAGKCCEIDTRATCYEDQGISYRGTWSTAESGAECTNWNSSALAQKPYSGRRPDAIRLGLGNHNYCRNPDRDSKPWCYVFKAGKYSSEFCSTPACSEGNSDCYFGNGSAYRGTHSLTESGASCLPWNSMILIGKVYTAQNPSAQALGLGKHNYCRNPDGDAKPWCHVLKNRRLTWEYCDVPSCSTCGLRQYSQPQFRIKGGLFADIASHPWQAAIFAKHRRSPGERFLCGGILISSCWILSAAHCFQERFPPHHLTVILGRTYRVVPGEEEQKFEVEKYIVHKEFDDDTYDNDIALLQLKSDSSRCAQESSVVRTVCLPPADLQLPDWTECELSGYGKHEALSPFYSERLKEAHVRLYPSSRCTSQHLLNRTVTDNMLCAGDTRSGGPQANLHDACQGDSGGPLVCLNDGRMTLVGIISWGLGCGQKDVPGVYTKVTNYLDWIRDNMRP
T2 sequence (P00747 581-810 limits assumed): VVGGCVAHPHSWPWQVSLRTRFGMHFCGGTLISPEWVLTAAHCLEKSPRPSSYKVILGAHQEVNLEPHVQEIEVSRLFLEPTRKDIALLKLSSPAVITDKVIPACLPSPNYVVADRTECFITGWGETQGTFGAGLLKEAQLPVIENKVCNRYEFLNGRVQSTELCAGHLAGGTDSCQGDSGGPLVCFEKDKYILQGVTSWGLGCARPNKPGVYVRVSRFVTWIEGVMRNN
T2 sequence (P00747 97-580 limits assumed): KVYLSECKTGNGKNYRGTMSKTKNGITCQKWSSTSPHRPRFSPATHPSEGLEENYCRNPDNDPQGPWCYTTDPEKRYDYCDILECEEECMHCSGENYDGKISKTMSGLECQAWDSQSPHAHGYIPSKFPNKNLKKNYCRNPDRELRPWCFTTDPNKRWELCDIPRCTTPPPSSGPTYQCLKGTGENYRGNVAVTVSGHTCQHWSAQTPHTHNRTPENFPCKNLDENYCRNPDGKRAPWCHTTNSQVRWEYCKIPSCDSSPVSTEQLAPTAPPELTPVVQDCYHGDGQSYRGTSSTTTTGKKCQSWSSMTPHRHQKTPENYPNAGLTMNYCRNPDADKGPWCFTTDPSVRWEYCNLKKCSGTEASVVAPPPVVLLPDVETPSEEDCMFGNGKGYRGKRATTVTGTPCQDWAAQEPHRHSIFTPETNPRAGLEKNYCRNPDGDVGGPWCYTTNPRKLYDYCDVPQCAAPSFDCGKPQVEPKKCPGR

c1ccc2c(NC3CCCC3)nc(Nc3ccncc3)nc2c1 [JJ1]
Selectivity ratio (human α-thrombin; K i enzyme/K i α-thrombin): 1 | Ki (human α-thrombin; mean ± SD (n = 5)): 0.019 ± 0.0005 µM | Selectivity ratio (Plasmin; K i Plasmin/K i α-thrombin): >10,000 | Ki (Plasmin; Plasmin): > 250 µM | Selectivity ratio (tPA; K i tPA/K i α-thrombin): >10,000 | Ki (tPA; tPA): > 250 µM | Degree of inhibition in the enzyme-based assay (thrombin): inhibitory effects | Concentration that doubled the clotting time, PT assay (human plasma): 1.61 µM | PT (human plasma; 0.05 μM): 12.1 ± 0.2 s | PT (INR) (human plasma; 0.05 μM): 1.04 INR | PT (human plasma; 0.1 μM): 11.7 ± 0.4 s | PT (INR) (human plasma; 0.1 μM): 0.96 INR | PT (human plasma; 0.2 μM): 12.7 ± 0.5 s | PT (INR) (human plasma; 0.2 μM): 1.17 INR | PT (human plasma; 0.5 μM): 15.4 ± 0.4 s | PT (INR) (human plasma; 0.5 μM): 1.86* INR | PT (human plasma; 1.0 μM): 21.4 ± 0.5 s | PT (INR) (human plasma; 1.0 μM): 4.09* INR | PT (human plasma; 2.0 μM): 25.8 ± 0.3 s | PT (INR) (human plasma; 2.0 μM): 6.41* INR | PT (human plasma; 5.0 μM): 26.5 ± 0.4 s | PT (INR) (human plasma; 5.0 μM): 6.83* INR | Tail bleeding time ([1]; 0.31 μg/mouse): 30.6 ± 0.8 s | Tail bleeding time ([1]; 0.61 μg/mouse): 37.2 ± 1.0 s | Tail bleeding time ([1]; 1.23 μg/mouse): 44.8 ± 1.2 s | Tail bleeding time ([1]; 3.06 μg/mouse): 52.2 ± 1.4 s | aPTT ([2]; 0.31 μg/mouse): 31.9 ± 0.6 s | aPTT ([2]; 0.61 μg/mouse): 40.1 ± 1.1 s | aPTT ([2]; 1.23 μg/mouse): 49.4 ± 1.5 s | aPTT ([2]; 3.06 μg/mouse): 55.8 ± 1.2 s | IC50 (clot-bound thrombin): 2.45 µM | Production of thrombin (HUVECs): inhibited the production of thrombin in a dose-dependent manner
